What was measured:
[1] = target: T1, Epidermal growth factor receptor (Homo sapiens, UniProt P00533); test: Inhibition of wild-type EGFR in human A549 cells assessed as reduction in P70S6K phosphorylation at Thr389 site at 0.01 to 3 uM by Western blot analysis; assay type: cell-based; settings: a549, 3 µM
[2] = target: T1, Epidermal growth factor receptor; test: Inhibition of Tel-fused EGFR (unknown origin) expressed in mouse BAF3 cells assessed as growth inhibition after 72 hrs by CellTiter-Glo assay; assay type: cell-based
[3] = target: Receptor tyrosine-protein kinase erbB-4 (Homo sapiens, UniProt Q15303); test: Binding affinity to wild-type human ERBB4 expressed in bacterial system assessed as control score at 1 uM by KINOMEScan assay
[4] = target: Epidermal growth factor receptor (Homo sapiens, UniProt P00533, EX19DEL); test: Inhibition of EGFR exon 19 deletion mutant in human HCC827 cells assessed as reduction in ERK phosphorylation at Thr202/Tyr204 measured after 4 hrs by Western blot analysis; assay type: cell-based
[5] = target: T1, Epidermal growth factor receptor; test: Inhibition of wild-type EGFR in human A549 cells assessed as reduction in 4EBP1 phosphorylation at Thr37/46 site at 0.01 to 3 uM by Western blot analysis; assay type: cell-based; settings: a549, 3 µM
[6] = target: T1, Epidermal growth factor receptor; test: Inhibition of wild-type EGFR in human NCI-H2122 cells assessed as reduction in eIF4E phosphorylation at Ser209 site at 0.01 to 3 uM by Western blot analysis; assay type: cell-based
[7] = target: Receptor tyrosine-protein kinase erbB-2 (Homo sapiens, UniProt P04626); test: Binding affinity to wild-type human ERBB2 expressed in mammalian system assessed as control score at 1 uM by KINOMEScan assay
Sequence of Receptor tyrosine-protein kinase erbB-2 (P04626 whole entry): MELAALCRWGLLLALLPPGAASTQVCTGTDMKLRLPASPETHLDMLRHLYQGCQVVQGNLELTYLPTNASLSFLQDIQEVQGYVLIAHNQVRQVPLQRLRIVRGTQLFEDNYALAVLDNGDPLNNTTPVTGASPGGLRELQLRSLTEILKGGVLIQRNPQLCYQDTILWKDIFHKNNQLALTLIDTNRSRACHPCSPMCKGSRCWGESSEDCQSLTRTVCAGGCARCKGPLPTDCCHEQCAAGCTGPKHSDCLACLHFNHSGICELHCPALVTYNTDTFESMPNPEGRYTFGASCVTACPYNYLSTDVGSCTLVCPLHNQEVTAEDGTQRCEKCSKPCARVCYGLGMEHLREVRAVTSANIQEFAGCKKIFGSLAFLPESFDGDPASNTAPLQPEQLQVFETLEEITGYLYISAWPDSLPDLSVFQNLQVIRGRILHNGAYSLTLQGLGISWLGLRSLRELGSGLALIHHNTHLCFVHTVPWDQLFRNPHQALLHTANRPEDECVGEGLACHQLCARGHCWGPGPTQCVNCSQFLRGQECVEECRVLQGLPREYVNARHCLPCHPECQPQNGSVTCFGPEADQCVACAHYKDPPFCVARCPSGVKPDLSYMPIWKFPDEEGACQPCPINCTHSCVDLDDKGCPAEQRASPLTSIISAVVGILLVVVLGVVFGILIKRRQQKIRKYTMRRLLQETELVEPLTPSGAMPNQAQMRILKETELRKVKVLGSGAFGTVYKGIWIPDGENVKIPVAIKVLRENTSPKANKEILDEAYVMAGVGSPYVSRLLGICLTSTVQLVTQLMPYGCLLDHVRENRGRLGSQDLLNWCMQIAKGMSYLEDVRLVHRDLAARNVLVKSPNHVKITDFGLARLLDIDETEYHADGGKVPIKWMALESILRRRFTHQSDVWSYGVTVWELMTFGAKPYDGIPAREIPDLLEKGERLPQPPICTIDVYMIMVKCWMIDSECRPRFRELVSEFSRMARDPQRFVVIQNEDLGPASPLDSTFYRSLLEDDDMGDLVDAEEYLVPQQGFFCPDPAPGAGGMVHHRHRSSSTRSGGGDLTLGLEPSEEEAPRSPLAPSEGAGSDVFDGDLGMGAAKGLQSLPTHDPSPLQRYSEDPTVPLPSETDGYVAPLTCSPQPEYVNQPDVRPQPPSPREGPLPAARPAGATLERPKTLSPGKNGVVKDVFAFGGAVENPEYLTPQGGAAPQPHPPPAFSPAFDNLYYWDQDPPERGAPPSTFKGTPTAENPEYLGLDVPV

[8] = target: Cytoplasmic tyrosine-protein kinase BMX (Homo sapiens) (UniProt P51813); test: Binding affinity to wild-type human BMX expressed in bacterial system assessed as control score at 1 uM by KINOMEScan assay
[9] = target: Epidermal growth factor receptor (Homo sapiens, UniProt P00533, L858R); test: Inhibition of EGFR L858R mutant expressed in human H3255 cells assessed as reduction in ERK phosphorylation at Thr202/Tyr204 measured after 4 hrs by Western blot analysis; assay type: cell-based
Sequence of Epidermal growth factor receptor (Homo sapiens, UniProt P00533, L858R) (P00533 25-1210 L858R limits assumed): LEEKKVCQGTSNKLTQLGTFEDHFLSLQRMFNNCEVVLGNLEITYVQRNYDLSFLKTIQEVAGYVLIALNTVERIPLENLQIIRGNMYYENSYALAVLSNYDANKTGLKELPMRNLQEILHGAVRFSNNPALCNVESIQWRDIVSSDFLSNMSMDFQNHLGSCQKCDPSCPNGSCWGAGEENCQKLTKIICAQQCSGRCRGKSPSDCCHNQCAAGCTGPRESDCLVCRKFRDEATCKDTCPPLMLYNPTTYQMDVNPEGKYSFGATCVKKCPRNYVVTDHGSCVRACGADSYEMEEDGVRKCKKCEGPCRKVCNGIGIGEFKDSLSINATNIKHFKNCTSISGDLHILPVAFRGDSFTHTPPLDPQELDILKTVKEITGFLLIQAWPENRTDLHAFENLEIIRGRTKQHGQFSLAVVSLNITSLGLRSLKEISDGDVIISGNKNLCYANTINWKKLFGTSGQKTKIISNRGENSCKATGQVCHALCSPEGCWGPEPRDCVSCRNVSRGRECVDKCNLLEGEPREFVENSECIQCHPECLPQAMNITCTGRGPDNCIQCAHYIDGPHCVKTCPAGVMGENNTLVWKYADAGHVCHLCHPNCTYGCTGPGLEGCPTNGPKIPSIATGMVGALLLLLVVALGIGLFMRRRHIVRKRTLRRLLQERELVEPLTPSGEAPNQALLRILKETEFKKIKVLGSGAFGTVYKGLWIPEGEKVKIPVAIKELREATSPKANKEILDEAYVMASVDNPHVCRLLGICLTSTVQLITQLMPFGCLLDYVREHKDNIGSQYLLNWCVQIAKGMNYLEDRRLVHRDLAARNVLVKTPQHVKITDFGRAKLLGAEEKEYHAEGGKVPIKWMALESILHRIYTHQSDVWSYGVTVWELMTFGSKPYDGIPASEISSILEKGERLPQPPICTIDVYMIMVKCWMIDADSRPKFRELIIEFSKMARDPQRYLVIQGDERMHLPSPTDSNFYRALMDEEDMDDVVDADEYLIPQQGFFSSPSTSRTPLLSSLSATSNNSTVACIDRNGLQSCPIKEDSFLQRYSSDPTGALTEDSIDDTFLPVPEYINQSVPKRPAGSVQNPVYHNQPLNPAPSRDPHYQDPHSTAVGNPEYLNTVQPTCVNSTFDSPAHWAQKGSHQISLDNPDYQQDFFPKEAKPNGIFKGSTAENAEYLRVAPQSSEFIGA

[10] = target: Insulin receptor (Homo sapiens) (UniProt P06213); test: Inhibition of Tel-fused INSR (unknown origin) expressed in mouse BAF3 cells assessed as growth inhibition after 72 hrs by CellTiter-Glo assay; assay type: cell-based
Sequence of Insulin receptor (Homo sapiens) (P06213 28-758 limits assumed): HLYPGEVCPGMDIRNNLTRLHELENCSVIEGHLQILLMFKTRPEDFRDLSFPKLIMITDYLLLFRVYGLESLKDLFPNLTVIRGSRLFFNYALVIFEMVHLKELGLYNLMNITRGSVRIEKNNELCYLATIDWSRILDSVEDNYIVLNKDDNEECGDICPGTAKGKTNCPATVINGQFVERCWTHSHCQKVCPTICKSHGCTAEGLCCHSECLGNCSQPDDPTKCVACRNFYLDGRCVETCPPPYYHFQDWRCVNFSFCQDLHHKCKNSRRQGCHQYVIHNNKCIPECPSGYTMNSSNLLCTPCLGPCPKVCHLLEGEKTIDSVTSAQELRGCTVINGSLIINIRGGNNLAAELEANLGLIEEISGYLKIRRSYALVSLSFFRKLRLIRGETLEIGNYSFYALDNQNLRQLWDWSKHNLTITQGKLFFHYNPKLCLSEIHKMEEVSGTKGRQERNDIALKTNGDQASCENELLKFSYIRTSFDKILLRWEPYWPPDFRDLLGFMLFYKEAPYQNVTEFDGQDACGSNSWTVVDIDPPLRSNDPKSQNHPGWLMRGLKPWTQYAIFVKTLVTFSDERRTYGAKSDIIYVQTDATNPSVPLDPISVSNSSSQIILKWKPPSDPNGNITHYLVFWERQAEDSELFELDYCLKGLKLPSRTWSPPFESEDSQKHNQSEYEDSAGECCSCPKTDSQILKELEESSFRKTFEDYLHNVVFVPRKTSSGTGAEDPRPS
Sequence of Insulin receptor (Homo sapiens) (P06213 763-1382 limits assumed): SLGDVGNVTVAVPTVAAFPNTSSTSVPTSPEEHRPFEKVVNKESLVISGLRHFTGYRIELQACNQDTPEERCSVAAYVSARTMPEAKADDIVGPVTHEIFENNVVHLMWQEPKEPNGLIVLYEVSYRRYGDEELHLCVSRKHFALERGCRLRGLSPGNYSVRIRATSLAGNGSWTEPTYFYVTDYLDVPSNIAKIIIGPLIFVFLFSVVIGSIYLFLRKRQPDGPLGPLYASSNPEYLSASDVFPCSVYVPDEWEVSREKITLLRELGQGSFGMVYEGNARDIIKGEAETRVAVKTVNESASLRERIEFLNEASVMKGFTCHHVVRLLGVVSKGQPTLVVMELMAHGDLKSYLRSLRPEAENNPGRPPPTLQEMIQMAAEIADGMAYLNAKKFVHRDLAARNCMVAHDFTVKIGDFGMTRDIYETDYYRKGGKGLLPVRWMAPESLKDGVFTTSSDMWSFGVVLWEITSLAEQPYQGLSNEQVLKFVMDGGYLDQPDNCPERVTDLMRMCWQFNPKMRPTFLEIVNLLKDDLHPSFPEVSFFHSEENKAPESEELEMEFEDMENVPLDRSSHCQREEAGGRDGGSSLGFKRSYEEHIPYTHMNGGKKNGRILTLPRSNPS

[11] = target: T1, Epidermal growth factor receptor; test: Inhibition of wild-type EGFR in human A549 cells assessed as reduction in ERK phosphorylation at Thr202/Tyr204 site at 0.01 to 3 uM by Western blot analysis; assay type: cell-based; settings: a549, 3 µM
[12] = target: T1, Epidermal growth factor receptor; test: Inhibition of wild-type EGFR in human NCI-H2122 cells assessed as reduction in STAT3 phosphorylation at Y705 site at 0.01 to 3 uM by Western blot analysis; assay type: cell-based
[13] = MRT (0 to infinity) in Sprague-Dawley rat plasma at 10 mg/kg, po after 24 hrs; assay type: ADME, organism-based
[14] = target: T1, Epidermal growth factor receptor; test: Inhibition of wild-type EGFR in human NCI-H2122 cells assessed as reduction in Akt phosphorylation at 308 site at 0.01 to 3 uM by Western blot analysis; assay type: cell-based
[15] = target: T1, Epidermal growth factor receptor; test: Inhibition of wild-type EGFR in human NCI-H2122 cells assessed as reduction in 4EBP1 phosphorylation at Thr37/46 site at 0.01 to 3 uM by Western blot analysis; assay type: cell-based
[16] = target: Dual specificity mitogen-activated protein kinase kinase 1 (Homo sapiens, UniProt Q02750); test: Inhibition of full-length recombinant human His-tagged MEK1 expressed in baculovirus by Z'-LYTE assay
[17] = target: T1, Epidermal growth factor receptor; test: Inhibition of wild type EGFR autophosphorylation at Y1068 in human A549 cells at 0.01 to 3 uM after 4 hrs by Western blot analysis; assay type: cell-based; settings: a549, 4 h

T1 sequence (P00533 whole entry, the tested form may be a part): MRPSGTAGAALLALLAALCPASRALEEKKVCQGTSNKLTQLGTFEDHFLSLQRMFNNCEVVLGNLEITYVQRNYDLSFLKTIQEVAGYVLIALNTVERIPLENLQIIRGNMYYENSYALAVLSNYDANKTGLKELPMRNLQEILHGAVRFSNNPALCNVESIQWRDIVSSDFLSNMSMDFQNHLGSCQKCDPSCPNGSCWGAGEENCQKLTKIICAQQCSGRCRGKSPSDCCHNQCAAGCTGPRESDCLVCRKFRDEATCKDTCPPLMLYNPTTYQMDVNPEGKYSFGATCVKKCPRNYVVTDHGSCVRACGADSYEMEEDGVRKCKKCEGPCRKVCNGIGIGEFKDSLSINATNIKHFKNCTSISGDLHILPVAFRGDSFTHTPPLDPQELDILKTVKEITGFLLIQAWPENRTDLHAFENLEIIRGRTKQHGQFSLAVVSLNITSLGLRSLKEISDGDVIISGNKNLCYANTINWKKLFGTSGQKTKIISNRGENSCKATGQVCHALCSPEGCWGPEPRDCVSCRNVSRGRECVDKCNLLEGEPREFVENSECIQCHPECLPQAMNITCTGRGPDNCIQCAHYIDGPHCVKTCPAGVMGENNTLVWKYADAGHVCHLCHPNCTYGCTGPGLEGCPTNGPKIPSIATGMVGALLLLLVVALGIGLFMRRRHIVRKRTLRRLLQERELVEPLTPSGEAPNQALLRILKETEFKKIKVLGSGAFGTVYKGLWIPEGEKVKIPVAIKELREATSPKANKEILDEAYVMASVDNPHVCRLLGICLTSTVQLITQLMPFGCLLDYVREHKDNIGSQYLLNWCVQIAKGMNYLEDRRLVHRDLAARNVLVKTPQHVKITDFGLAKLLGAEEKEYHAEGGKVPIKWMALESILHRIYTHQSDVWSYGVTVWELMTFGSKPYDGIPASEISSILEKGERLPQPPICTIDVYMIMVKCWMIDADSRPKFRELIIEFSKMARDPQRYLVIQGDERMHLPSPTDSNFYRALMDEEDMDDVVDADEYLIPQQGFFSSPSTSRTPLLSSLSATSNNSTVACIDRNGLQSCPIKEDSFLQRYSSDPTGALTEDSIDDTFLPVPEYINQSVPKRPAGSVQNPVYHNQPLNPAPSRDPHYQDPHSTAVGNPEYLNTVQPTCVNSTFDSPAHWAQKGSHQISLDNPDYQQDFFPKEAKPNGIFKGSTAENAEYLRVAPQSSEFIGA

## C=CC(=O)N1CCC[C@@H](n2nc(-c3ccc(OCc4ccccn4)c(Cl)c3)c3c(N)ncnc32)C1
[1]
  inhibition (INH): Not Active
[2]
  GI50: 2000 nM
[3]
  Activity: 0%
[4]
  EC50: < 10 nM
[5]
  inhibition (INH): Not Active
[6]
  inhibition (INH): Not Active
[7]
  Activity: 0%
[8]
  Activity: 0.9%
[9]
  EC50: < 10 nM
[10]
  GI50: 3500 nM
[11]
  inhibition (INH): Not Active
[12]
  inhibition (INH): Not Active
[13]
  MRT inf: 2.55 h
[14]
  inhibition (INH): Not Active
[15]
  inhibition (INH): Not Active
[16]
  IC50: 161 nM
[17]
  inhibition (INH): Active

Reference: ChEMBL document CHEMBL4049404, “Discovery of (R)-1-(3-(4-Amino-3-(3-chloro-4-(pyridin-2-ylmethoxy)phenyl)-1H-pyrazolo[3,4-d]pyrimidin-1-yl)piperidin-1-yl)prop-2-en-1-one (CHMFL-EGFR-202) as a Novel Irreversible EGFR Mutant Kinase Inhibitor with a Distinct Binding Mode” (J Med Chem, 2017)
